Test results published in article PMC2254147, “Novel Triazine JPC-2067-B Inhibits Toxoplasma gondii In Vitro and In Vivo” (PLoS Neglected Tropical Diseases, 2008).
Like-named read-outs stand apart in the source and are kept apart here.

What was measured:
[1] = tested on: T. gondii tachyzoites (RH strain); test: Murine toxoplasmosis, i.p. JPC-2067-B, peritoneal parasite burden; assay type: in vivo, mice (outbred Swiss Webster)
Procedure: Tachyzoites also were used to infect mice. Outbred Swiss Webster mice were bred in our specific pathogen free colony. When they were approximately 30 g, they received 10,000 RH strain tachyzoites intra-peritoneally (i.p.); numbers of parasites present in peritoneal fluid were counted four days later as described,[13]. Mice were maintained and utilized in accordance with IACUC and NIH guidelines and approvals. JPC-2067-B was administered parenterally. In initial studies, this was given 15 minutes after i.p. infection and then each day for four days(1.25 mg/kg/day). […] Control mice received 1% DMSO in PBS. For these parenterally treated mice, female mice received a dose of 1.25 mg/kg/day of JPC-2067-B, administered i.p. for the next 3 days. Control mice received an equivalent amount of DMSO (1%) in 1× PBS. In a separate experiment, DMSO at this concentration was shown not to modify subsequent parasite numbers when compared with i.p. inoculation of PBS. […] In contrast, infected control mice appeared ill, with ruffled fur and hunched posture. […] These differences between control and treated mice were statistically significant (p<0.05).

hDHFR = target: T1, hDHFR (Homo sapiens, UniProt P00374); test: Plate reader DHFR assay, recombinant human DHFR; assay type: biochemical
T1 construct: made in house
T1 sequence (P00374 1-187): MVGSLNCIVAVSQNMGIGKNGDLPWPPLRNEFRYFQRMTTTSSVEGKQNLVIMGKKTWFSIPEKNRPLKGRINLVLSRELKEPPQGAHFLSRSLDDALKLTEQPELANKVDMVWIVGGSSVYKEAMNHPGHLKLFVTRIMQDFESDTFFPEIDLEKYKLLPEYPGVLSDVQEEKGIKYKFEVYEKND
Excerpt: (§1) DHFR from T. gondii prepared as above was also directly compared to purified recombinant P. falciparum DHFR (pfDHFR) and purified recombinant human DHFR (hDHFR). The hDHFR was from pDFR plasmid. The enzyme was purified following ammonium sulfate precipitation, methotrexate:agarose affinity chromatography, and finally a Superdex 200 size exclusion column. The pfDHFR isolation methods were those reported previously,[44]. […] The same buffer as used in the other assays comparing T. gondii DHFR with DHFRs from rat liver P. carinii and M. avium intracellulare was used but the maximal activity, temperature, and length of observation were adjusted for assays on the specific plate reader. […] The reaction was setup at 23°C, the plate loaded, and the OD340 recorded at 20 second intervals for 10 minutes. The first 8 minutes were used to generate linear fit slopes in Excel. […] Results are expressed as the percent of control activity versus log concentration of inhibitor. Prism 5.0 was used to generate curves from 12 different concentrations of inhibitor using a non-linear fit method.

Rat liver DHFR = target: T2, Rat liver DHFR (Rattus norvegicus, UniProt Q920D2); test: Spectrophotometric DHFR assay, rat liver DHFR; assay type: biochemical; details: 37°C; (95% confidence limits)
T2 construct: Rat liver DHFR was prepared from livers of female Sprague-Dawley rats; from tissue; host or cells: liver of female Sprague-Dawley rats
T2 sequence (Q920D2 1-187): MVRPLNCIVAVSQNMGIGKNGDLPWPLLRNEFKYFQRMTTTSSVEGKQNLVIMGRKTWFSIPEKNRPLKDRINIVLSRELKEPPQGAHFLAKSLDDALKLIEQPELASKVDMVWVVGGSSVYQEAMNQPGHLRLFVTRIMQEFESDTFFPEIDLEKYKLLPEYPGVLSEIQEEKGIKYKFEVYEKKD
Procedure: Rat liver DHFR was prepared from livers of female Sprague-Dawley rats. The 100,000× g supernate was partially purified by ammonium sulfate precipitation; the 50–90% precipitate was re-dissolved and stored in liquid nitrogen.
(§2) The spectrophotometric assay for DHFR was optimized for temperature and concentration of substrate and cofactor for each enzyme. […] The reaction was continuously recorded for 3 minutes. […] The low background activity in the absence of dihydrofolic acid was subtracted from all rates.
(§3) DHFR was assayed with several concentrations of inhibitor to produce rates ranging from 1 to 90% of the uninhibited rate. At least three concentrations were required for calculation; most curves contained five concentrations.

[2] = tested on: tester strains TA97, TA98, TA100, TA102 and TA1535; test: Ames Test with and without microsomal activation
Procedure: A 42-day toxicology study in CD-1 mice at doses up to 98 mg/kg evaluating well-being, weight gain, and histopathology was performed. […] 7.5 mg/kg was established as the NOAEL (No Observed Adverse Effect Level). JPC-2056 and JPC-2067 were assayed in the Ames Test with and without microsomal activation with tester strains TA97, TA98, TA100, TA102 and TA1535.

TgDHFR [3] = target: T3, TgDHFR (Toxoplasma gondii, UniProt Q07422); test: biochemical; assay type: biochemical; details: 23°C
T3 construct: DHFR from T. gondii was isolated directly from RH strain T. gondii grown in culture; endogenous in cells; host or cells: RH strain T. gondii grown on CHO/dhfr- cells
T3 sequence (Q07422 1-610): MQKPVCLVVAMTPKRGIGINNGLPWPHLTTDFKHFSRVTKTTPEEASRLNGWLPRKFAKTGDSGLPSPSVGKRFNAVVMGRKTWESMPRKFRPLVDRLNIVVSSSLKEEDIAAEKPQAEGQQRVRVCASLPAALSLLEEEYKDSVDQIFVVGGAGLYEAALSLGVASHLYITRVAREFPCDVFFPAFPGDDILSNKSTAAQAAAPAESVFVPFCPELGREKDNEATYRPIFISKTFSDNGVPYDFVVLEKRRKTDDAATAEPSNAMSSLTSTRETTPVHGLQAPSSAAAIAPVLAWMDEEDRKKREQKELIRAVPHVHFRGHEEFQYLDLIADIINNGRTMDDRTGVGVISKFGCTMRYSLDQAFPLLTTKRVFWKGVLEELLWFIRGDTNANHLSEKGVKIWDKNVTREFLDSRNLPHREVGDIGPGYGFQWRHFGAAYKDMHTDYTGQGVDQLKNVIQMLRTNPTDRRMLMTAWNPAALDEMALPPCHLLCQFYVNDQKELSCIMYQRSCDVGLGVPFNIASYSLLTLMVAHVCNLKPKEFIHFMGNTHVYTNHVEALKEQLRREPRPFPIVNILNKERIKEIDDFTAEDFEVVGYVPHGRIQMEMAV
Excerpt: as §1

TgDHFR [4] = target: T3, TgDHFR; test: biochemical; assay type: biochemical; details: 37°C
Procedure: DHFR from Pneumocystis carinii was produced as the recombinant enzyme expressed in Escherichia coli. […] Organisms were introduced into a confluent monolayer and harvested when the mammalian cells were lysed. The 100,000× g supernate was stored in liquid nitrogen.
as §2, §3

`CC1(C)N=C(N)N=C(N)N1OCCCOc1ccc(OC(F)(F)F)cc1Cl` [JPC-2067-B, 4,6-diamino-1,2-dihydro-2,2-dimethyl-1-(3′(2-chloro-, 4-trifluoromethoxyphenoxy)propyloxy)-1,3,5-triazine] was tested, and the Intraperitoneal parasite numbers ([1]; 1.25 mg/kg/day i.p., 10,000 RH tachyzoites i.p., fifth day after injection of parasites, p<0.05) was “reduced by two logs”, the “Appearance of treated mice” value ([1]; 1.25 mg/kg/day i.p., 4 days after infection) was “sleek and active” and the IC50 (hDHFR; recombinant, 23°C, (95% Confidence Intervals), read-out: hDHFR IC50) was 0.148 µM. For the same compound, the IC50 (hDHFR; text to Figure 5 and Table 2, read-out: IC50 for human DHFR) was 0.15 µM, the IC50 (Rat liver DHFR) was 0.0222 µM and the “Ames Test, with and without microsomal activation” value [2] was “No activity”. The “Ames w/o Activation” value [2] was “Not Active ^*”, the “Ames with Activation” value [2] was “Not Active ^*” and the IC50 (TgDHFR [3]; Tg lysate, (95% Confidence Intervals)) was 0.032 µM. For the same compound, the “Ratio of IC50 values hDHFR/tgDHFR” value (TgDHFR [3]; high throughput method) was 4.6, the IC50 (TgDHFR [4]; (95% confidence limits), read-out: Tg DHFR IC50) was 0.0065 µM and the “Ratio of IC50 values rat liver DHFR/TgDHFR” value (TgDHFR [4]; lysates) was 3.4.
